From patent US5831026A, “Process for purifying factor VIII” (Pharmacia & Upjohn AB, priority 1994, dated 1998)
Like-named read-outs stand apart in the source and are kept apart here.

Columns and labels:
[1] = system: metal-dependent proteases; conditions: 3 mM EDTA in washing and elution liquid, harvest solution no. 2
Description: The method chosen was a protease assay with casein which was resorufin-labeled. By treatment with proteases, resorufin-labeled peptides are released from the casein. The concentration of these resorufin-labeled peptides in the supernatant is a measure of the proteolytic activity present. The test sample was incubated at 37° C. for a period of time which was dependent upon the sample at issue. The absorption wave-length chosen was 574 run throughout the tests.
(§1) Conditioned mediums (containing human serum albumin) from two consecutive harvests, were clarified and buffered with NH4 Ac. Each resulting solution, with a pH of 6.8, was loaded onto a column containing SP SEPHAROSE® FF sold by Pharmacia AB of Uppsala, Sweden. This cation-exchange chromatography step was performed at about 8° C. After washing, factor VIII was eluted with a salt buffer containing 0.8M NaCl and 0.1M NH4 Ac. The washing liquid as well as the elution liquid contained 3 mM EDTA in the tests with harvest solution no. 2. Tests without EDTA present was carried out for comparison (harvest solution no. 1). […] The concentration of unbound Ca^2+ -ions was determined by an ion-selective electrode.

[2] = system: metal-dependent proteases; experiment: Protease assay with resorufin-labeled casein in harvest solution (conditioned medium); format: biochemical, Chinese Hamster; conditions: for Mean absorbance: 37° C., 2 h preincubation + 17 h, pH 7.5; for Mean absorbance corrected: blank subtracted
Description: The method chosen was a protease assay with casein which was resorufin-labeled. By treatment with proteases, resorufin-labeled peptides are released from the casein. The concentration of these resorufin-labeled peptides in the supernatant is a measure of the proteolytic activity present. The test sample was incubated at 37° C. for a period of time which was dependent upon the sample at issue. The absorption wave-length chosen was 574 run throughout the tests. […]
Preincubation of the conditioned medium with or without EDTA was conducted at 37° C. for 2 h. After the addition of substrate, further incubation was carried out for 17 h. The pH in the incubation mixture was 7.5.
Absorbance corrected, refers to the absorption after subtraction of the blank value.
Conditioned medium (containing human serum albumin) was clarified and imidazole subsequently added in an amount ranging from 3.6 mM up to 360 mM.
Conditioned medium (containing human serum albumin) was clarified and histidine subsequently added in an amount ranging from 0.14 mM to 13.6 mM.

[3] = 3 mM EDTA in washing and elution liquid; harvest solution no. 2
Description: as §1

[4] = system: factor VIII; experiment: Activity of factor VIII after addition of complexing agent to eluted solution from SP Sepharose FF, COATEST chromogenic assay; format: biochemical; conditions: for Factor VIII activity (IU/ml) / Factor VIII activity (%): Example 8; for Factor VIII activity (%): 0 h without additive = 100
Description: Tests without EDTA present were carried out for comparison.
A conditioned medium (containing human serum albumin) from a different harvest than the previous Examples, was clarified and buffered with NH4 Ac. […] After elution, various amounts of EDTA were added to the resulting solution. Tests without EDTA present were carried out for comparison. The procoagulant activity of factor VIII was determined after storage at ambient temperature for up to 246 hours, in accordance to the procedure described in Example 5.
A conditioned medium (containing human serum albumin) from a different harvest than the previous Examples, was clarified and buffered with NH4 Ac. […] After elution, various amounts of EDTA were added to the resulting solution. Tests without EDTA present were carried out for comparison. The procoagulant activity of factor VIII was determined after storage at ambient temperature for up to 28 hours, in accordance to the procedure described in Example 5.
A conditioned medium (containing human serum albumin) from a different harvest than the previous Examples, was clarified and buffered with NH4 Ac. The resulting solution was loaded onto a column containing SP SEPHAROSE® FF. This cation-exchange chromatography step was performed at 10° C. […] After elution, EDTA or 1,10-Phenanthroline were added to the resulting solution.

[5] = 3 mM EDTA, incubation 4.5 h ambient
[6] = 3 mM EDTA, incubation 7.5 h ambient
[7] = 3 mM EDTA, incubation 24 h ambient

For O=C(O)CN(CCN(CC(=O)O)CC(=O)O)CC(=O)O [EDTA, ethylenediamine tetraacetic acid], the Mean absorbance corrected ([1]; blank subtracted) was 0.023, the “Protease activity (%)” value ([1]; harvest no. 1 without EDTA = 100) was 8% and the Mean absorbance ([1]; incubation 2 h) was 0.064. The “Protease activity (%)” value ([2]; 0.23 mM EDTA) was 43%, the Mean absorbance ([2]; 0.23 mM EDTA) was 1835 and the Mean absorbance corrected ([2]; 0.23 mM EDTA) was 865. The “Protease activity (%)” value ([2]; 1.2 mM EDTA) was 8%, the Mean absorbance ([2]; 1.2 mM EDTA) was 1141 and the Mean absorbance corrected ([2]; 1.2 mM EDTA) was 171. For the same compound, the “Protease activity (%)” value ([2]; 2.3 mM EDTA) was 5%, the Mean absorbance ([2]; 2.3 mM EDTA) was 1069 and the Mean absorbance corrected ([2]; 2.3 mM EDTA) was 99. The “Protease activity (%)” value ([2]; 11.5 mM EDTA) was 1%, the Mean absorbance ([2]; 11.5 mM EDTA) was 994 and the Mean absorbance corrected ([2]; 11.5 mM EDTA) was 24. For the same compound, the “Protease activity (%)” value ([2]; 23 mM EDTA) was -2%, the Mean absorbance ([2]; 23 mM EDTA) was 933 and the Mean absorbance corrected ([2]; 23 mM EDTA) was -37. The “Unbound Ca^2+ ions” value [3] was 25 mM, the “Activity of factor VIII in % of the initial value” ([4]; Example 6 (0.4M NaCl eluate), 0.01 mM EDTA, storage 0 h ambient) was 100% and the “Activity of factor VIII in % of the initial value” ([4]; Example 6 (0.4M NaCl eluate), 0.01 mM EDTA, storage 2.5 h ambient) was 77%. For the same compound, the “Activity of factor VIII in % of the initial value” ([4]; Example 6 (0.4M NaCl eluate), 0.01 mM EDTA, storage 5 h ambient) was 59%, the “Activity of factor VIII in % of the initial value” ([4]; Example 6 (0.4M NaCl eluate), 0.01 mM EDTA, storage 10 h ambient) was 32% and the “Activity of factor VIII in % of the initial value” ([4]; Example 6 (0.4M NaCl eluate), 0.01 mM EDTA, storage 24 h ambient) was 1.9%. For the same compound, the “Activity of factor VIII in % of the initial value” ([4]; Example 6 (0.4M NaCl eluate), 0.03 mM EDTA, storage 0 h ambient) was 100%, the “Activity of factor VIII in % of the initial value” ([4]; Example 6 (0.4M NaCl eluate), 0.03 mM EDTA, storage 2.5 h ambient) was 76% and the “Activity of factor VIII in % of the initial value” ([4]; Example 6 (0.4M NaCl eluate), 0.03 mM EDTA, storage 5 h ambient) was 59%. For the same compound, the “Activity of factor VIII in % of the initial value” ([4]; Example 6 (0.4M NaCl eluate), 0.03 mM EDTA, storage 10 h ambient) was 33%, the “Activity of factor VIII in % of the initial value” ([4]; Example 6 (0.4M NaCl eluate), 0.03 mM EDTA, storage 24 h ambient) was 2.1% and the “Activity of factor VIII in % of the initial value” ([4]; Example 6 (0.4M NaCl eluate), 0.1 mM EDTA, storage 0 h ambient) was 100%. For the same compound, the “Activity of factor VIII in % of the initial value” ([4]; Example 6 (0.4M NaCl eluate), 0.1 mM EDTA, storage 2.5 h ambient) was 82%, the “Activity of factor VIII in % of the initial value” ([4]; Example 6 (0.4M NaCl eluate), 0.1 mM EDTA, storage 5 h ambient) was 65% and the “Activity of factor VIII in % of the initial value” ([4]; Example 6 (0.4M NaCl eluate), 0.1 mM EDTA, storage 10 h ambient) was 43%. The “Activity of factor VIII in % of the initial value” ([4]; Example 6 (0.4M NaCl eluate), 0.1 mM EDTA, storage 24 h ambient) was 4.6%, the “Activity of factor VIII in % of the initial value” ([4]; Example 6 (0.4M NaCl eluate), 0.3 mM EDTA, storage 0 h ambient) was 100% and the “Activity of factor VIII in % of the initial value” ([4]; Example 6 (0.4M NaCl eluate), 0.3 mM EDTA, storage 2.5 h ambient) was 79%. For the same compound, the “Activity of factor VIII in % of the initial value” ([4]; Example 6 (0.4M NaCl eluate), 0.3 mM EDTA, storage 5 h ambient) was 71%, the “Activity of factor VIII in % of the initial value” ([4]; Example 6 (0.4M NaCl eluate), 0.3 mM EDTA, storage 10 h ambient) was 55% and the “Activity of factor VIII in % of the initial value” ([4]; Example 6 (0.4M NaCl eluate), 0.3 mM EDTA, storage 24 h ambient) was 11%. For the same compound, the “Activity of factor VIII in % of the initial value” ([4]; Example 6 (0.4M NaCl eluate), 1.0 mM EDTA, storage 0 h ambient) was 100%, the “Activity of factor VIII in % of the initial value” ([4]; Example 6 (0.4M NaCl eluate), 1.0 mM EDTA, storage 2.5 h ambient) was 90% and the “Activity of factor VIII in % of the initial value” ([4]; Example 6 (0.4M NaCl eluate), 1.0 mM EDTA, storage 5 h ambient) was 97%. The “Activity of factor VIII in % of the initial value” ([4]; Example 6 (0.4M NaCl eluate), 1.0 mM EDTA, storage 10 h ambient) was 97%, the “Activity of factor VIII in % of the initial value” ([4]; Example 6 (0.4M NaCl eluate), 1.0 mM EDTA, storage 24 h ambient) was 75% and the “Activity of factor VIII in % of the initial value” ([4]; Example 6 (0.4M NaCl eluate), 1.0 mM EDTA, storage 48 h ambient) was 54%. For the same compound, the “Activity of factor VIII in % of the initial value” ([4]; Example 6 (0.4M NaCl eluate), 3.0 mM EDTA, storage 0 h ambient) was 100%, the “Activity of factor VIII in % of the initial value” ([4]; Example 6 (0.4M NaCl eluate), 3.0 mM EDTA, storage 2.5 h ambient) was 92% and the “Activity of factor VIII in % of the initial value” ([4]; Example 6 (0.4M NaCl eluate), 3.0 mM EDTA, storage 5 h ambient) was 102%. For the same compound, the “Activity of factor VIII in % of the initial value” ([4]; Example 6 (0.4M NaCl eluate), 3.0 mM EDTA, storage 10 h ambient) was 104%, the “Activity of factor VIII in % of the initial value” ([4]; Example 6 (0.4M NaCl eluate), 3.0 mM EDTA, storage 24 h ambient) was 100% and the “Activity of factor VIII in % of the initial value” ([4]; Example 6 (0.4M NaCl eluate), 3.0 mM EDTA, storage 48 h ambient) was 96%. For the same compound, the “Activity of factor VIII in % of the initial value” ([4]; Example 6 (0.4M NaCl eluate), 3.0 mM EDTA, storage 72 h ambient) was 80%, the “Activity of factor VIII in % of the initial value” ([4]; Example 6 (0.4M NaCl eluate), 3.0 mM EDTA, storage 100 h ambient) was 91% and the “Activity of factor VIII in % of the initial value” ([4]; Example 6 (0.4M NaCl eluate), 3.0 mM EDTA, storage 246 h ambient) was 72%. For the same compound, the “Activity of factor VIII in % of the initial value” ([4]; Example 7 (0.8M NaCl eluate), 1 mM EDTA, storage 0 h ambient) was 100%, the “Activity of factor VIII in % of the initial value” ([4]; Example 7 (0.8M NaCl eluate), 1 mM EDTA, storage 5 h ambient) was 119% and the “Activity of factor VIII in % of the initial value” ([4]; Example 7 (0.8M NaCl eluate), 1 mM EDTA, storage 28 h ambient) was 64%. The “Activity of factor VIII in % of the initial value” ([4]; Example 7 (0.8M NaCl eluate), 2 mM EDTA, storage 0 h ambient) was 100%, the “Activity of factor VIII in % of the initial value” ([4]; Example 7 (0.8M NaCl eluate), 2 mM EDTA, storage 5 h ambient) was 120% and the “Activity of factor VIII in % of the initial value” ([4]; Example 7 (0.8M NaCl eluate), 2 mM EDTA, storage 28 h ambient) was 100%. For the same compound, the “Activity of factor VIII in % of the initial value” ([4]; Example 7 (0.8M NaCl eluate), 3 mM EDTA, storage 0 h ambient) was 100%, the “Activity of factor VIII in % of the initial value” ([4]; Example 7 (0.8M NaCl eluate), 3 mM EDTA, storage 5 h ambient) was 120% and the “Activity of factor VIII in % of the initial value” ([4]; Example 7 (0.8M NaCl eluate), 3 mM EDTA, storage 28 h ambient) was 90%. The “Activity of factor VIII in % of the initial value” ([4]; Example 7 (0.8M NaCl eluate), 4 mM EDTA, storage 0 h ambient) was 100%, the “Activity of factor VIII in % of the initial value” ([4]; Example 7 (0.8M NaCl eluate), 4 mM EDTA, storage 5 h ambient) was 109% and the “Activity of factor VIII in % of the initial value” ([4]; Example 7 (0.8M NaCl eluate), 4 mM EDTA, storage 28 h ambient) was 103%. The “Activity of factor VIII in % of the initial value” ([4]; Example 7 (0.8M NaCl eluate), 5 mM EDTA, storage 0 h ambient) was 100%, the “Activity of factor VIII in % of the initial value” ([4]; Example 7 (0.8M NaCl eluate), 5 mM EDTA, storage 5 h ambient) was 116% and the “Activity of factor VIII in % of the initial value” ([4]; Example 7 (0.8M NaCl eluate), 5 mM EDTA, storage 28 h ambient) was 91%. For the same compound, the “Factor VIII activity (IU/ml)” value [4, 5] was 813 IU/ml, the “Factor VIII activity (%)” value [4, 5] was 92% and the “Factor VIII activity (IU/ml)” value [4, 6] was 862 IU/ml. For the same compound, the “Factor VIII activity (%)” value [4, 6] was 97%, the “Factor VIII activity (IU/ml)” value [4, 7] was 763 IU/ml and the “Factor VIII activity (%)” value [4, 7] was 86%.
